Assay results: US20260199213A1, “PEPTIDE HAVING ACTIVITY OF IMPROVING STATE OF SKIN, AND USE THEREOF” (CAREGEN CO., LTD., priority 2022, published 2026)

How the values were obtained:
Type in all cases: cell-based
MMP-1 = MMP-1 expression increased by ultraviolet rays in HaCaT cells (western blot); details: 20 mJ/cm^2 UV, 10 μM, 50 μM or 1000 μM peptide, 24 hours, FIG. 15
From the text: It has been reported that MMP-1 (matrix metalloproteinase-1) promotes the decomposition of collagen and the reduction of elastin in the dermis layer, thereby creating wrinkles and causing a decrease in elasticity in the skin. Accordingly, in this example, the aim was to confirm the effect of the peptide according to an embodiment on improving extrinsic skin aging, including improving wrinkles and increasing elasticity, etc., by evaluating the change in the expression level of MMP-1 increased by ultraviolet irradiation.
Specifically, NIH3T3 cells or HaCaT cells were seeded in a 6-well plate at a density of 5×10^5 cells/well and cultured for 24 hours. Next, the cells were washed once with serum-free DMEM media, and 10 μM, 50 μM or 1000 μM of the peptide consisting of the amino acid sequence of SEQ ID NO: 1 was dispensed into 1 mL of the serum-free media, and cultured in a CO2 incubator at 37° C. for 1 hour. Next, the above culture was transferred to an e-tube, mixed with 1 ml of PBS, and dispensed into a well plate. Next, using a UV irradiator (VILBER LOURMAT, Cat No.: 3102-BSU, France), 6 J/cm^2 ultraviolet rays were irradiated to NIH3T3 cells, and 20 mJ/cm^2 ultraviolet rays were irradiated to HaCaT cells. […] Next, MMP-1 was detected using […]. […]

aquaporin-3 (AQP3) = test: AQP3 expression by RT-PCR in HaCaT cells; details: 10 μM, 50 μM or 1000 μM peptide, 24 hours
Protocol: In this example, the aim was to confirm the effect of the peptides according to an example on strengthening the skin barrier, by evaluating the expression levels of sirtuin-1 (SIRT-1) or aquaporin-3 (AQP3).
Specifically, HaCaT cells were seeded in a 6-well plate at a density of 3×10^5 cells/well and cultured for 24 hours. Next, the cells were washed once with serum-free DMEM media, and 10 μM, 50 μM or 1000 μM of the peptide consisting of the amino acid sequence of SEQ ID NO: 1 was dispensed into 1 mL of the serum-free media, and cultured in a CO2 incubator at 37° C. for 24 hours. Next, the culture was washed twice with PBS, and RNA was isolated from the culture using easy blue (iNtRON, Cat. No.: 17061, Korea). Next, using an RT kit (Enzynomics, Cat. NO.: RT200, Korea), the isolated RNA was reverse transcribed to synthesize the respective cDNA. Next, using the synthesized 1 ug cDNA, primers for SIRT-1 or AQP3, and a PCR kit (Enzynomics, Cat. No.: P581T, Korea), polymerase chain reaction (PCR) was performed. Meanwhile, in this example, an untreated group was used as the control group, and a group to which EGF was added was used as a positive control group, the nucleotide sequences of the primers used in this example are shown in Table 3 below.

[1] = tested on: reactive oxygen species in HaCaT cells; test: Reactive oxygen species increased by ultraviolet rays in HaCaT cells (DCF-DA, flow cytometry)
Protocol: In this example, the aim was to confirm the effect of the peptide according to an embodiment on the antioxidant effect in damaged skin, by evaluating the change in the level of reactive oxygen species in skin cells increased by ultraviolet irradiation.
Specifically, NIH3T3 cells or HaCaT cells were seeded in a 6-well plate at a density of 5×10^5 cells/well and cultured for 24 hours. Next, the cells were washed once with serum-free DMEM media, and 10 μM, 50 μM or 1000 μM of the peptide consisting of the amino acid sequence of SEQ ID NO: 1 was dispensed into 1 mL of the serum-free media, and cultured in a CO2 incubator at 37° C. for 1 hour. Next, the above culture was transferred to an e-tube, mixed with 1 ml of PBS, and dispensed into a well plate. Next, using a UV irradiator (VILBER LOURMAT, Cat No.: 3102-BSU, France), 6 J/cm^2 ultraviolet rays were irradiated to NIH3T3 cells, and 15 mJ/cm^2 ultraviolet rays were irradiated to HaCaT cells. Next, the PBS in the well plate was removed, 900 μL of the culture medium in which the peptides were dispensed was added, and the plate was cultured in a CO2 incubator at 37° C. for 24 hours. The culture was then treated with DCFG-DA (2′,7′-dichlorofluorescin diacetate), wrapped in foil, and cultured in a CO2 incubator at 37° C. for 30 minutes. Next, the culture was washed twice with PBS and treated with 500 μL of 1× trypsin/EDTA to acquired cells, which were then centrifuged. After washing the centrifuged cells with PBS, FL1 fluorescence values were measured through flow cytometry (FACS, BD, USA). […]
In this example, the aim was to compare in more detail, the effect of peptides according to an embodiment on the antioxidant effect in damaged skin cells. To this end, the peptide consisting of the amino acid sequence of SEQ ID NO: 2, 3, or 4 having a sequence similar to the peptide according to an embodiment was set as a comparison group, and the level of reactive oxygen species in skin cells increased by ultraviolet irradiation of HaCaT cells was evaluated and compared in the same manner as in Example 4-1. […]

GPRGDP [SEQ ID NO: 1]
expression of MMP-1 increased by ultraviolet irradiation (MMP-1): reduced or restored
expression of skin barrier factor AQP3 (aquaporin-3 (AQP3)): increases
reactive oxygen species reducing effect compared to the comparison group ([1]; HaCaT cells, vs peptides of SEQ ID NO: 2, 3, or 4 (50 μM, 100 μM)): superior
level of reactive oxygen species increased by ultraviolet irradiation ([1]; keratinocytes (HaCaT), 15 mJ/cm^2 UV, 10 μM, 50 μM or 1000 μM peptide, 24 hours): reduced
level of reactive oxygen species increased by ultraviolet irradiation (Example 4-2) ([1]; keratinocytes (HaCaT), comparison experiment, FIG. 11): reduced
